Measurements: ChEMBL document CHEMBL1201862, “PubChem BioAssay data set” (2004)
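Growth conditions: 96-well plates. Treatment: test compound, 48 hours, 5 concentrations. Analysis: linear interpolation between bracketing concentrations; unreached endpoints set to highest concentration. GI50: concentration for 50% inhibition of growth.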 Calls of active or inactive are those of the source. No stated cut-off is given here; in the data, active = GI50 up to about 1.1 µM and inactive = higher.

How the values were obtained:
Test in all cases: DTP human tumour cell line panel, 48 h
[1] = test system: A498
[2] = test system: ACHN
[3] = test system: CCRF-CEM
[4] = test system: COLO 205
[5] = test system: EKVX
[6] = test system: HCC 2998
[7] = test system: HOP-92
[8] = test system: Hs-578T
[9] = test system: IGROV-1
[10] = test system: K562
[11] = test system: MCF7
[12] = test system: MDA-MB-435
[13] = test system: MOLT-4
[14] = test system: NCI-H226
[15] = test system: RPMI-8226
[16] = test system: SF-295
[17] = test system: SK-MEL-2
[18] = test system: SK-OV-3
[19] = test system: SN12C
[20] = test system: SW-620

Measured: GI50

COc1cc2c(cc1OC)C(=O)N(c1ccc(OCCN3CCCC3)cc1)C2
inactive: [1] > 100 µM | [2] > 100 µM | [3] > 100 µM | [4] > 100 µM | [5] > 100 µM | [6] > 100 µM | [7] > 100 µM | [8] > 100 µM | [9] > 100 µM | [10] > 100 µM | [11] > 100 µM | [12] > 100 µM | [13] > 100 µM | [14] > 100 µM | [15] > 100 µM | [16] > 100 µM | [17] > 100 µM | [18] > 100 µM | [19] > 100 µM | [20] > 100 µM

CCC(=O)Nc1ccc(NCC(=O)Nc2ccc(Cl)cc2)cc1
inactive: [1] 17.7 µM | [2] 13.3 µM | [3] 12.5 µM | [4] 16.9 µM | [5] 14 µM | [6] 13.2 µM | [7] 17.6 µM | [8] 37 µM | [9] 18.4 µM | [10] 24 µM | [11] 14.3 µM | [12] 15.7 µM | [13] 21 µM | [14] 18.2 µM | [15] 21.2 µM | [16] 14.4 µM | [17] 14.8 µM | [18] 16.9 µM | [19] 17.1 µM | [20] 24.7 µM

CC1(C)CCC2(C(=O)OC3OC(CO)C(O)C(O)C3O)CCC3(C)C(=CCC4C5(C)CCC(OC6OC(CO)C(O)C(O)C6O)C(C)(C)C5CCC43C)C2C1 (stereo not given)
inactive: [1] > 25 µM | [2] > 25 µM | [3] 4.51 µM | [4] 8.04 µM | [5] > 25 µM | [6] 4.01 µM | [7] 7.74 µM | [8] 10.7 µM | [9] 14.1 µM | [10] 9.04 µM | [11] 8 µM | [12] 7.16 µM | [13] 7.26 µM | [14] 10.5 µM | [15] 4.18 µM | [16] 15.2 µM | [17] 5.45 µM | [18] > 25 µM | [19] 10.9 µM | [20] 8.83 µM

COc1ccc(CCNC(=O)[C@H]2CCCC[C@@H]2CCO)cc1OC
inactive: [1] > 100 µM | [2] > 100 µM | [3] > 100 µM | [4] > 100 µM | [5] > 100 µM | [6] > 100 µM | [7] > 100 µM | [8] > 100 µM | [9] > 100 µM | [10] > 100 µM | [11] > 100 µM | [12] > 100 µM | [13] > 100 µM | [14] > 100 µM | [15] > 100 µM | [16] > 100 µM | [17] > 100 µM | [18] > 100 µM | [19] > 100 µM | [20] > 100 µM

COc1ccc2nccc(NCCCN3CCN(CCCNc4ccnc5ccc(OC)cc45)CC3)c2c1
active: [3] 0.0828 µM | [4] 0.261 µM | [6] 0.505 µM | [7] 0.226 µM | [8] 0.237 µM | [9] 0.283 µM | [10] 0.228 µM | [11] 0.0403 µM | [12] 0.427 µM | [13] 0.107 µM | [14] 0.255 µM | [15] 0.264 µM | [16] 0.975 µM | [19] 0.177 µM | [20] 0.11 µM
inactive: [1] 2.58 µM | [2] 1.45 µM | [5] 1.34 µM | [17] 1.25 µM | [18] 1.53 µM

COC(=O)CN1Cc2cc(C)cc(c2O)CN(CC(=O)OC)Cc2cc(C)cc(c2O)CN(CC(=O)OC)Cc2cc(C)cc(c2O)C1
inactive: [1] > 51.8 µM | [2] > 47.1 µM | [3] 6.76 µM | [4] > 54.3 µM | [5] > 100 µM | [6] 2.03 µM | [7] > 81.8 µM | [8] > 100 µM | [9] > 100 µM | [10] > 100 µM | [11] > 42 µM | [12] > 100 µM | [13] > 100 µM | [14] > 37.4 µM | [15] > 100 µM | [16] > 61.8 µM | [17] > 39.8 µM | [18] > 45.5 µM | [19] > 100 µM | [20] > 87.3 µM

C[C@@H](NC(=O)c1ccc(CNC(=O)/C=C/c2cccc(Oc3ccccc3)c2)cc1)c1ccccc1
inactive: [1] 31 µM | [2] 12.5 µM | [3] > 100 µM | [4] > 100 µM | [5] 21.8 µM | [6] > 100 µM | [7] 59.7 µM | [8] 7.33 µM | [9] 48.1 µM | [10] > 100 µM | [11] 97.1 µM | [12] > 100 µM | [13] > 100 µM | [14] 28.4 µM | [15] > 100 µM | [16] 26.8 µM | [17] > 60.1 µM | [18] > 93.1 µM | [19] > 100 µM | [20] > 100 µM

CC(=O)CC(OC(C)=O)C1=CCC2C(CC1C)OC(=O)C2C (stereo not given)
inactive: [1] > 100 µM | [2] > 100 µM | [3] 64.9 µM | [4] > 100 µM | [5] > 100 µM | [6] > 100 µM | [7] > 100 µM | [8] > 100 µM | [9] > 100 µM | [10] > 100 µM | [11] > 100 µM | [12] > 100 µM | [13] > 100 µM | [14] > 100 µM | [15] > 100 µM | [16] > 100 µM | [17] > 100 µM | [18] > 100 µM | [19] > 100 µM | [20] > 100 µM

C=CCN(c1cc(OCc2ccccc2)c(NC(C)=O)cc1[N+](=O)[O-])S(C)(=O)=O
inactive: [1] 19.3 µM | [2] 52.7 µM | [3] > 100 µM | [4] > 100 µM | [5] 7.05 µM | [6] > 100 µM | [7] 19.2 µM | [8] 24.2 µM | [9] 21.1 µM | [10] > 100 µM | [11] 52.2 µM | [12] > 100 µM | [13] > 100 µM | [14] 12.7 µM | [15] 46.7 µM | [16] 23.5 µM | [17] 26.9 µM | [18] 17.9 µM | [19] 29 µM | [20] > 100 µM

Nc1nnc(-c2ccco2)c(-c2ccco2)n1
inactive: [1] > 100 µM | [2] > 100 µM | [3] > 100 µM | [4] > 100 µM | [5] > 100 µM | [6] > 100 µM | [7] > 100 µM | [8] > 100 µM | [9] > 100 µM | [10] > 100 µM | [11] > 100 µM | [12] > 100 µM | [13] > 100 µM | [14] > 100 µM | [15] > 100 µM | [16] > 100 µM | [17] > 100 µM | [18] > 100 µM | [19] > 100 µM | [20] > 100 µM
